{
  "source": "patent US20230348487A1",
  "about": "“2-AMINOPYRIMIDINE COMPOUND AND PHARMACEUTICAL COMPOSITION THEREOF AND APPLICATION THEREOF” (GUANGZHOU SALUSTIER BIOSCIENCES CO., LTD., priority 2021, published 2023)",
  "key": {"[1]": {"biological_target": "JAK2 (Homo sapiens (Human), UniProt O60674)", "sequence (O60674 whole entry)": "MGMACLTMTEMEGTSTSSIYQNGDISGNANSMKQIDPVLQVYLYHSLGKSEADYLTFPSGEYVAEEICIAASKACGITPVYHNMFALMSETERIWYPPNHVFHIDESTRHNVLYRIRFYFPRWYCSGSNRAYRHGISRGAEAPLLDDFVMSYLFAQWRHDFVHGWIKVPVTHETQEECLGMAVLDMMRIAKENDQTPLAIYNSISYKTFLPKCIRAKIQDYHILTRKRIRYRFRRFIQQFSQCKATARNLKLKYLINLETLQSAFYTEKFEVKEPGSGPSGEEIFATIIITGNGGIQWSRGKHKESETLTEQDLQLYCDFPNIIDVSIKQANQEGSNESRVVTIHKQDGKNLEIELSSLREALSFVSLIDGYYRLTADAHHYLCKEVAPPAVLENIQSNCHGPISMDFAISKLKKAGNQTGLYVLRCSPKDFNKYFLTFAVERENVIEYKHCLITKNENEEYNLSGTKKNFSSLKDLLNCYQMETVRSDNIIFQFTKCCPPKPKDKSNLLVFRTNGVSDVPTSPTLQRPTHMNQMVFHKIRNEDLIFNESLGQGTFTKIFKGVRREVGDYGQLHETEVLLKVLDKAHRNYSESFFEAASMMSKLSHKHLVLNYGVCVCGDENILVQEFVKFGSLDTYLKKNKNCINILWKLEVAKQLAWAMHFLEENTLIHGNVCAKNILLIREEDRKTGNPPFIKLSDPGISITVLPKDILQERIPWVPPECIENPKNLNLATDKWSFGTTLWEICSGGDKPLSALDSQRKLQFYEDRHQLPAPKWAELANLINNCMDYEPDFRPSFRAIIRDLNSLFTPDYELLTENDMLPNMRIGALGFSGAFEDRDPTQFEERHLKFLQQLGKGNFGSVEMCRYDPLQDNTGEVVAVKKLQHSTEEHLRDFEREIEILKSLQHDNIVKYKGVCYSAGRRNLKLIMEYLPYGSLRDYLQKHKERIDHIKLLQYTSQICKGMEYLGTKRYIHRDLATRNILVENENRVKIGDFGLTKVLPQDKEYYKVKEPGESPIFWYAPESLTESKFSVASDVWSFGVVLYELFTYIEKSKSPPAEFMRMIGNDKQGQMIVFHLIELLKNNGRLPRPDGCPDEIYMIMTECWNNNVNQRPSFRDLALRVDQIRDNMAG", "experiment": "Z′-Lyte kinase inhibitory activity test", "type": "biochemical", "settings": "ATP concentration Km", "method_in_brief": "(§1)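 FRET-based Z′-Lyte assay in 50 mM HEPES pH 7.5, 0.01% Brij-35, 10 mM MgCl2, 1 mM EGTA with 2 μM peptide substrate, titrated kinase and ATP; 10-point 3-fold dilutions from 10 μM final, 1.5 h kinase reaction at 30 °C, then 1 h development. Inhibition from substrate phosphorylation ratio.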"}, "[2]": {"biological_target": "JAK3 (Homo sapiens (Human), UniProt P52333)", "sequence (P52333 whole entry)": "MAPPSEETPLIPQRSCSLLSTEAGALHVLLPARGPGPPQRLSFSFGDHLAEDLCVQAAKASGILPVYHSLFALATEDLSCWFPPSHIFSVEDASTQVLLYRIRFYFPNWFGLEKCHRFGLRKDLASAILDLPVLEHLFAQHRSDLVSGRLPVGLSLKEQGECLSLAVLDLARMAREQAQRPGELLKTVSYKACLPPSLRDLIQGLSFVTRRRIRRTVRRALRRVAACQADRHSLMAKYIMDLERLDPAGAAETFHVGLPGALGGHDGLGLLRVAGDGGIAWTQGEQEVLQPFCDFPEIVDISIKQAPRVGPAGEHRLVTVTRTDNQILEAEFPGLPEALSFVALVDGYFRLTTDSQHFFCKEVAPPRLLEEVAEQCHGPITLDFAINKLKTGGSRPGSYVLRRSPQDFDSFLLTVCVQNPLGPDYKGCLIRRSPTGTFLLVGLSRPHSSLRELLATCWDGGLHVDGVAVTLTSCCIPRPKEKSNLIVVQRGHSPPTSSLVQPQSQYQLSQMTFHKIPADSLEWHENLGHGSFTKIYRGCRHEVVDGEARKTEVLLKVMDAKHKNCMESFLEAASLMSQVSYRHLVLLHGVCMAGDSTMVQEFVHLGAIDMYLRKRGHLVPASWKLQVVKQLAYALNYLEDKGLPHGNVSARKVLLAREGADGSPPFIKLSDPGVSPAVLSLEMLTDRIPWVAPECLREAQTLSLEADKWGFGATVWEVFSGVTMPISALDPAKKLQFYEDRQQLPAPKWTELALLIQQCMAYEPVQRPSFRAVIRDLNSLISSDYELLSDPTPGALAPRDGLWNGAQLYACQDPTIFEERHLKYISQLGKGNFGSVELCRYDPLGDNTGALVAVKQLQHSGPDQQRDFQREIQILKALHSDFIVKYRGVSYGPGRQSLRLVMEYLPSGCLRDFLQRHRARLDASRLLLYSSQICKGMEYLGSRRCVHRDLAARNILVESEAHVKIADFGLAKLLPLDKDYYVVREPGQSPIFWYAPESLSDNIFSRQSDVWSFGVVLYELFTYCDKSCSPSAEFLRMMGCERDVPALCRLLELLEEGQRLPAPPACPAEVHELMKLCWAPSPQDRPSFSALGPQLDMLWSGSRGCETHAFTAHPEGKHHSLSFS", "experiment": "Z′-Lyte kinase inhibitory activity test", "type": "biochemical", "method_in_brief": "as §1"}, "[3]": {"experiment": "In vivo pharmacokinetic properties in rats", "design": "species or system SD rats", "settings": "rat", "experimental": "Species: SD rats, SPF grade.\nNumber of rats: 3 in each group, male.\nThe animals in the oral administration group were fasted overnight (10-14 hours) before administration, and were fed 4 hours after administration. The animals were weighed before administration, and the dosage was calculated based on body weight. The drug was administered intravenously (iv, 5 mg/kg) or orally by gavage (po, 15 mg/kg). Blood was collected from jugular vein at 0.083 h, 0.25 h, 0.5 h, 1 h, 2 h, 4 h, 6 h, and 8 h after administration. About 0.20 mL of each sample was collected, anticoagulated with heparin sodium, placed on ice after collection, and centrifuged to separate plasma within 1 hour (centrifugation condition: 6800 g, 6 minutes, 2-8° C.). Plasma samples were stored in a −80° C. freezer until analysis. […] Pharmacokinetic parameters were calculated using Phoenix WinNonlin7.0 based on the blood drug concentration data at different time points, providing the pharmacokinetic parameters and their average values, and standard deviations."}, "[4]": {"experiment": "Rat liver microsomes stability test", "type": "in vitro ADME", "settings": "for Remaining percentage: rat liver microsomes, average value; for CLint scaled at 1 µM / half-life at 1 µM: rat, liver microsomes, pH 7.4, rat liver microsomes", "experimental": "Firstly, preheated 0.1 M potassium phosphate buffer with 5 mM MgCl2 (i.e. K/Mg buffer) at pH 7.4±0.1. Prepared the spiked solution for the tested compound and reference compound (500 μM spiked solution: added 5 μL of 10 mM stock solution into 95 μL of acetonitrile; 1.5 μM microsomal spiked solution (0.75 mg/mL): added 1.5 μL of 500 μM spiked solution and 18.75 μL of 20 mg/mL liver microsomes into 479.75 μL of K/Mg buffer). Then NADPH was dissolved in buffer K to prepare a 6 mM, 5 mg/mL NADPH stock solution. At different time points (0-, 5-, 15-, 30-, 45 minutes), 30 μL of 1.5 μM spiked solution containing 0.75 mg/mL of microsome solution was distributed onto the designated detection plate. At 0 min, 150 μL of acetonitrile containing internal standard (IS) was added to the 0 min plate well, followed by 15 μL of NADPH stock solution (6 mM). Then, all plates were pre-incubated at 37° C. for 5 minutes, added 15 μL of NADPH stock solution (6 mM), the reaction was initiated and timed. At 5 minutes, 15 minutes, 30 minutes, and 45 minutes, added 150 μL of acetonitrile solution containing IS to the corresponding wells to stop the reaction. After quenching, the plate was shaken for 10 minutes (600 rpm/min), followed by centrifugation at 6000 rpm/min for 15 minutes. 80 μL of supernatant of each well were transferred into a 96-well sample plate containing 140 μL of ultrapure water to perform LC/MS analysis. The analysis of biological samples and all samples were completed by the analysis laboratory of Medicipia Pharmaceutical Technology (Shanghai) Co., Ltd."}, "[5]": {"system": "U937 cells", "experiment": "In vivo anti-tumor activity, U937 subcutaneous tumor in mice", "experimental": "Animal model: 4-6 weeks old Male CB-17 SCID mice\nU937 cells were cultured in vitro (1640+10% FBS+1% dual antibody) and amplified to 50 plates (10 cm). The cells were collected into a 50 mL centrifuge tube, centrifuged at 800 rpm for 5 minutes. The supernatant was discarded, and the cells was enriched into a 50 mL sterile centrifuge tube, washed once with PBS, and centrifuged at 800 rpm for 5 minutes. The cells were suspended with an appropriate amount of sterile PBS, counted and diluted to 2×10^7 cells/mL; 0.2 mL cells per animal were inoculated subcutaneously in the right anterior axilla of the animal (preferably inoculated before the animal is 20 g).\n5-7 days after inoculation (Since U937 tumor grows fast, observe once every 3 days), when the tumor grew to 100-200 mm^3, the mice were grouped and administered the drugs, and excluded the animals with too large or too small tumors. The mice were randomly divided into a medication group and a solvent group, with 6 mice in each group. The initial tumor volume and body weight were recorded on the day of grouping.\nThe administration cycle was 10 days, and daily administration was applied. The body weight and tumor volume of animals were measured once every 2 days. The formula for calculating tumor volume is: V=π/6*a*b*b (wherein a and b are the length and width of the tumor, respectively). The next day after the end of administration, the animal was weighed and the tumor volume was measured; and then the animal was sacrificed and the tumor was dissected to weighed. The tumor body was fixed with neutral formalin for pathological observation. Animal blood samples were collected for routine blood analysis according to experimental needs, and the main organs of the animals were collected for pathological analysis. At the end of the study, all animals were euthanized and the tumors, livers, kidneys, and lungs of […] were collected for further analysis."}},
  "note": "Where two headings read alike, the source gives them in different places.",
  "data": [
    {"smiles": "C=CC(=O)Nc1cc(Nc2ncc(Cl)c(O[C@@H]3CO[C@H]4[C@@H]3OC[C@H]4OC)n2)ccc1N(C)CCN(C)C", "note": "[LS 6-45]", "values": [
      {"measurement": "IC50", "setting": "[1]", "value": 2040, "unit": "nM"},
      {"measurement": "IC50", "setting": "[2]; ATP concentration 1 mM", "value": 1.53, "unit": "nM"},
      {"measurement": "IC50", "setting": "[2]; ATP concentration Km", "value": 1.25, "unit": "nM"},
      {"measurement": "clearance", "setting": "[3]; male, SD, plasma, iv 5 mg/kg", "value": "155 ± 2.83", "unit": "mL/min/kg"},
      {"measurement": "AUC(0-∞)", "setting": "[3]; iv 5 mg/kg", "value": "536.99 ± 9.89", "unit": "ng·h/mL"},
      {"measurement": "Cmax", "setting": "[3]; iv 5 mg/kg", "value": "911.33 ± 139.73", "unit": "ng/mL"},
      {"measurement": "AUC(0-∞)", "setting": "[3]; po 15 mg/kg", "value": "333.50 ± 45.52", "unit": "ng·h/mL"},
      {"measurement": "Cmax", "setting": "[3]; po 15 mg/kg", "value": "238.28 ± 13.68", "unit": "ng/mL"},
      {"measurement": "F (oral availability)", "setting": "[3]; po 15 mg/kg", "value": "20.66 ± 2.83", "unit": "%"},
      {"measurement": "F (oral availability)", "setting": "[3]; po 15 mg/kg, listed as LS6-45", "value": 20.66, "unit": "%"},
      {"measurement": "Remaining percentage", "setting": "[4]; 0 min", "value": 100.00, "unit": "%"},
      {"measurement": "Remaining percentage", "setting": "[4]; 5 min", "value": 95.76, "unit": "%"},
      {"measurement": "Remaining percentage", "setting": "[4]; 15 min", "value": 90.38, "unit": "%"},
      {"measurement": "Remaining percentage", "setting": "[4]; 30 min", "value": 87.93, "unit": "%"},
      {"measurement": "Remaining percentage", "setting": "[4]; 45 min", "value": 79.61, "unit": "%"},
      {"measurement": "CLint scaled at 1 µM", "setting": "[4]; calculated value below the 20.70 limit, read-out: Clint (value in parentheses)", "value": 16.6, "unit": "mL/min/kg"},
      {"measurement": "half-life at 1 µM", "setting": "[4]; calculated value beyond the 120 min limit, read-out: T1/2 (value in parentheses)", "value": 2.5, "unit": "h"},
      {"measurement": "CLint scaled at 1 µM", "setting": "[4]; read-out: Clint", "value": "< 20.7", "unit": "mL/min/kg"},
      {"measurement": "half-life at 1 µM", "setting": "[4]; read-out: T1/2", "value": "> 2", "unit": "h"},
      {"measurement": "toxic side effects and body weight", "setting": "[5]; CB-17 SCID mice, during the administration period", "value": "no toxic side effects and no signs of weight loss"},
      {"measurement": "tumor growth", "setting": "[5]; U937 tumor in CB-17 SCID mice, 50 mg/kg dose group, oral bid", "value": "completely stagnant or even regressed"},
      {"measurement": "growth rate of tumors", "setting": "[5]; U937 tumor in CB-17 SCID mice, during 10 days administration, versus control group", "value": "significantly lower than that of the control group"},
      {"measurement": "phosphorylation of JAK3, STAT3, STAT5 and cell cycle related proteins in tumor tissues (Western blot)", "setting": "[5]; tumor tissues of experimental mice, compared with control group", "value": "significant inhibitory effects"}
    ]}
  ]
}
